Experimental data from the supplement of paper PMC11061612.

Legend:
Experiment in all cases: combination Emax (second highest fraction inhibited in the dose matrix, 72 h); higher = more inhibition; extreme values may be limits of the assay
[1] = test system: SCC-15 (Oral Cavity Carcinoma)
Method in brief: (§1)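 Cell lines grown in DMEM/F12 or RPMI with 10% FBS were plated in 1536-well plates and held 24 hours at 37°C, 5% CO2 before 72 hours of exposure to two-drug dose matrices, with DMSO typically at 0.2%. CellTiter-Glo 2.0 luminescence gave viability, which was converted to inhibition. Vehicle wells were set to 0 and blank wells to 1. Combination Emax is the second-highest inhibition in the matrix, and Bliss excess is the observed combination effect minus the expected EA + EB − EA·EB, where EA and EB are the single-agent effects.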

[2] = test system: SU8686 (Pancreatic Carcinoma)
Method in brief: as §1

[3] = test system: HOP-62 (Lung Adenocarcinoma)
Method in brief: as §1

[4] = test system: OVCAR-4 (Ovarian Carcinoma)
Method in brief: as §1

[5] = test system: PANC-04-03 (Pancreatic Carcinoma)
Method in brief: as §1

[6] = test system: BT-549 (Breast Carcinoma)
Method in brief: as §1

[7] = test system: KARPAS-299 (T-Cell Non-Hodgkin's Lymphoma)
Method in brief: as §1

D-263MG (Glioblastoma) = test system: D-263MG (Glioblastoma)
Method in brief: as §1

TGW (Neuroblastoma) = test system: TGW (Neuroblastoma)
Method in brief: as §1

[8] = test system: LU-65 (Non-Small Cell Lung Carcinoma)
Method in brief: as §1

[9] = test system: Hs-766T (Pancreatic Carcinoma)
Method in brief: as §1

[10] = test system: Ca9-22 (Head and Neck Carcinoma)
Method in brief: as §1

[11] = test system: HSC-4 (Oral Cavity Carcinoma)
Method in brief: as §1

[12] = test system: TE-1 (Esophageal Squamous Cell Carcinoma)
Method in brief: as §1

[13] = test system: MLMA (Other Blood Carcinomas)
Method in brief: as §1

[14] = test system: AMO-1 (Plasma Cell Myeloma)
Method in brief: as §1

YH-13 (Glioblastoma) = test system: YH-13 (Glioblastoma)
Method in brief: as §1

[15] = test system: HGC-27 (Gastric Carcinoma)
Method in brief: as §1

[16] = test system: NEC8 (Other Solid Carcinomas)
Method in brief: as §1

[17] = test system: NCI-H1915 (Non-Small Cell Lung Carcinoma)
Method in brief: as §1

Row | Structure (SMILES) | combination Emax [1] | combination Emax [2] | combination Emax [3] | combination Emax [4] | combination Emax [5] | combination Emax [6] | combination Emax [7] | combination Emax (D-263MG (Glioblastoma)) | combination Emax (TGW (Neuroblastoma)) | combination Emax [8] | combination Emax [9] | combination Emax [10] | combination Emax [11] | combination Emax [12] | combination Emax [13] | combination Emax [14] | combination Emax (YH-13 (Glioblastoma)) | combination Emax [15] | combination Emax [16] | combination Emax [17]
1 | CN(CCO)CC[C@H](CSc1ccccc1)Nc1ccc(S(=O)(=O)NC(=O)c2ccc(N3CCC([C@@H](O)c4ccccc4-c4ccc(Cl)cc4)CC3)cc2)cc1S(=O)(=O)C(F)(F)F [AZD4320] + CN(C)CCCOc1ccc(-c2ccc3ncc4c(c3c2)n(C2CCOCC2)c(=O)n4C)cn1 [AZD0156] (first compound max 1 µM, 7x7, partner max 1 µM) | 0.202 | 0.0423 | 0.194 | 0.184 | 0.192 | 0.227 | 0.13 | 0.0929 | 0.963 | 0.307 | 0.21 | 0.0929 | 0.245 | 0.37 | 0.374 | 0.0251 | 0.134 | 0.274 | 0.203 | 0.271
2 | COc1nnc2ccc(N3CCC(c4ccc(OCCN5CCN(C)C(=O)[C@H]5C)cc4)CC3)nn12 [AZD5153] + C=CCn1c(=O)c2cnc(Nc3ccc(N4CCN(C)CC4)cc3)nc2n1-c1cccc(C(C)(C)O)n1 [AZD1775] (first compound max 1 µM, partner max 1 µM) | 0.435 | 0.171 | 0.631 | 0.583 | 0.484 | 0.732 | 0.919 | 0.34 | 0.674 | 0.799 | 0.448 | 0.672 | 0.397 | 0.591 | 0.938 | 0.978 | 0.592 | 0.839 | 0.913 | 0.678
3 | COc1nnc2ccc(N3CCC(c4ccc(OCCN5CCN(C)C(=O)[C@H]5C)cc4)CC3)nn12 [AZD5153] + CC1(C)CCC(CN2CCN(c3ccc(C(=O)NS(=O)(=O)c4ccc(NCC5CCOCC5)c([N+](=O)[O-])c4)c(Oc4cnc5[nH]ccc5c4)c3)CC2)=C(c2ccc(Cl)cc2)C1 [Venetoclax] (first compound max 1 µM, 7x7, partner max 1 µM) | 0.335 | 0.0794 | 0.557 | 0.444 | 0.445 | 0.518 | 0.781 | 0.369 | 0.798 | 0.458 | 0.444 | 0.66 | 0.0567 | 0.4 | 0.912 | 0.907 | 0.656 | 0.777 | 0.831 | 0.432
4 | COc1nnc2ccc(N3CCC(c4ccc(OCCN5CCN(C)C(=O)[C@H]5C)cc4)CC3)nn12 [AZD5153] + CCN(CCO)CCCOc1ccc2c(Nc3cc(CC(=O)Nc4cccc(F)c4)[nH]n3)ncnc2c1 [AZD2811] (first compound max 1 µM, 7x7, partner max 1 µM) | 0.41 | 0.0898 | 0.631 | 0.467 | 0.487 | 0.593 | 0.847 | 0.445 | 0.501 | 0.494 | 0.416 | 0.592 | 0.292 | 0.49 | 0.915 | 0.912 | 0.585 | 0.82 | 0.826 | 0.486
5 | COc1nnc2ccc(N3CCC(c4ccc(OCCN5CCN(C)C(=O)[C@H]5C)cc4)CC3)nn12 [AZD5153] + C[C@@H]1COCCN1C2=NC(=NC(=C2)C3(CC3)[S@](=N)(=O)C)C4=C5C=CNC5=NC=C4 [AZD6738] (first compound max 1 µM, 7x7, partner max 10 µM) | 0.524 | 0.1 | 0.664 | 0.711 | 0.545 | 0.637 | 0.985 | 0.465 | 0.728 | 0.734 | 0.543 | 0.878 | 0.528 | 0.617 | 0.967 | 0.978 | 0.663 | 0.859 | 0.954 | 0.546
6 | COc1nnc2ccc(N3CCC(c4ccc(OCCN5CCN(C)C(=O)[C@H]5C)cc4)CC3)nn12 [AZD5153] + Cc1c2c(nn1C)CSCc1cc(n(C)n1)CSc1cc(c3ccccc3c1)OCCCc1c(C(=O)O)n(C)c3c-2c(Cl)ccc13 [AZD5991] (first compound max 1 µM, 7x7, partner max 1 µM) | 0.436 | 0.134 | 0.602 | 0.523 | 0.442 | 0.814 | 0.978 | 0.98 | 0.808 | 0.623 | 0.459 | 0.815 | 0.199 | 0.511 | 0.994 | 1 | 0.667 | 0.987 | 1 | 0.502
7 | COc1nnc2ccc(N3CCC(c4ccc(OCCN5CCN(C)C(=O)[C@H]5C)cc4)CC3)nn12 [AZD5153] + Cn1cnc2c(F)c(Nc3ccc(Br)cc3Cl)c(C(=O)NOCCO)cc21 [Selumetinib] (first compound max 1 µM, 7x7, partner max 10 µM) | 0.584 | 0.241 | 0.668 | 0.492 | 0.548 | 0.518 | 0.996 | 0.441 | 0.602 | 0.789 | 0.589 | 0.699 | 0.423 | 0.601 | 0.906 | 0.928 | 0.546 | 0.796 | 0.929 | 0.732
